The record followed here is patent US20250051376A1, “BENZIMIDAZOLE DERIVATIVE COMPOUNDS AND USE THEREOF” (PHARMGEN SCIENCE, INC., priority 2021, published 2025).

Series [1] concerns gastric acid secretion. The experiment in a line: Gastric acid releasing suppression ability test by oral administration (pylorus-ligated, histamine-stimulated rats). The series is classed as in vivo. How it is done: A week before the test, test animals (rats) were purchased and acclimatized. After acclimatization, food was removed the day before the test and fasting was performed for 24 hours using a fasting plate. The weight of each individual was measured, weight ranking was sequentially assigned to each group, and the average value of each group was randomly distributed so that the average value was evenly distributed. Test material (the embodiment compound and comparison compound) were used by dissolving them in 0.5% methylcellulose solution, and tegoprazan was used as a comparative compound. The prepared test material was orally administered to test animals at an amount of 3 mg/5 ml/kg, and 30 minutes later, inhalation anesthesia (3% isoflurane) was performed for 3 minutes using an inhalation anesthesia machine. After making a minimal incision in the upper abdomen about 1 cm below the left side of the sternum of an anesthetized test animal, the stomach was exposed, and the pyloric ring, which is the connection between the stomach and the duodenum, was ligated. The stomach and duodenum were restored to their original positions, and the laparotomy site was sutured well with surgical staplers. Histamine (7.5 mg/2.5 mL/head) was slowly administered subcutaneously to the back of the neck to promote gastric acid secretion. 3 hours after the surgery, the experimental animals were anesthetized with isoflurane and the stomach was removed through laparotomy. Gastric fluid obtained from the extracted stomach was transferred to a 15 ml conical tube, centrifuged at 5,000 rpm for 10 minutes, and only the supernatant was separated. 0.2 mL of the separated gastric fluid was diluted in 24.8 mL of distilled water to make a total dilution of 25 mL, and then 0.01N NaOH was added in small amounts to titrate until the pH reached 7. Efficacy was evaluated by calculating total acidity by combining the amount of gastric fluid and the amount of 0.01N NaOH required for titration.

Series [2] has as its system gastric acid secretion. Briefly: Gastric acid releasing suppression ability test by administration in the duodenum (pylorus-ligated, histamine-stimulated rats). The series is classed as in vivo. To be noted: for gastric acid releasing suppression ability (% INH, Mean ± SD): intraduodenal 1 mg/5 ml/kg in 0.5% methylcellulose, pylorus ligation, histamine s.c., gastric fluid collected 3 hours after surgery. How it is done:
A week before the test, test animals (rats) were purchased and acclimatized. After acclimatization, food was removed the day before the test and fasting was performed for 24 hours using a fasting plate. The weight of each individual was measured, weight ranking was sequentially assigned to each group, and the average value of each group was randomly distributed so that the average value was evenly distributed. Test material (the embodiment compound and comparison compound) were used by dissolving them in 0.5% methylcellulose solution, and tegoprazan was used as a comparative compound. Experimental animals were subjected to inhalation anesthesia (3% isoflurane) for 3 minutes using an inhalation anesthesia machine. After making a minimal incision in the upper abdomen about 1 cm below the left side of the sternum of an anesthetized test animal, the stomach was exposed, and the pyloric ring, which is the connection between the stomach and the duodenum, was ligated. The prepared drug was administered into the duodenum in an amount of 1 mg/5 ml/kg, the stomach and duodenum were restored to their original positions, and the laparotomy site was sutured well with a surgical stapler. Histamine (7.5 mg/2.5 mL/head) was slowly administered subcutaneously to the back of the neck to promote gastric acid secretion. 3 hours after the surgery, the experimental animals were anesthetized with isoflurane and the stomach was removed through laparotomy. Gastric fluid obtained from the extracted stomach was transferred to a 15 ml conical tube, centrifuged at 5,000 rpm for 10 minutes, and only the supernatant was separated. 0.2 mL of the separated gastric fluid was diluted in 24.8 mL of distilled water to make a total dilution of 25 mL, and then 0.01N NaOH was added in small amounts to titrate until the pH reached 7. Efficacy was evaluated by calculating total acidity by combining the amount of gastric fluid and the amount of 0.01N NaOH required for titration.

A further series can be described thus: physchem. Particulars: pH 6.8, aqueous buffer, thermodynamic from solid.
[3] abbreviates: rats, oral 3 mg/5 ml/kg in 0.5% methylcellulose, pylorus ligation 30 min after dosing, histamine s.c., gastric fluid collected 3 hours after surgery.

As for `Cc1nc2cc(C(=O)N(C)C)cc(O[C@H]3CCOc4cc(F)cc(F)c43)c2[nH]1` [Comparison compound, tegoprazan, reference compound], the “gastric acid releasing suppression ability (% INH, Mean ± SD)” value with gastric acid secretion [1] (setting [3]) is 100 ± 0.0 % INH; in the series with gastric acid secretion [2], 29.8 ± 9.1 % INH.

With `Cc1nc2c(O[C@H]3CCOc4cc(F)cc(F)c43)cc(C(=O)N(C)C)cc2n1COP(=O)(OC(C)(C)C)OC(C)(C)C` [Embodiment 2, (S)-di-tert-butyl ((4-((5,7-difluorochroman-4-yl)oxy)-6-(dimethylcarbamoyl)-2-methyl-1H-benzo[d]imidazol-1-yl)methyl) phosphate], the “improved water solubility (pH 6.8) compared to the comparative compound” value turned out to be 256 times. Besides, the “gastric acid releasing suppression ability (% INH, Mean ± SD)” value in the series with gastric acid secretion [1] (setting [3]) came to 26.8 ± 9.2 % INH. Moreover, in “physchem”, the solubility (usually the dissolved amount per volume that the medium holds) at 31 min was determined as 5120 µg/mL.

For `Cc1nc2c(O[C@H]3CCOc4cc(F)cc(F)c43)cc(C(=O)N(C)C)cc2n1COP(=O)(O)OC(C)(C)C` [Embodiment 3, tert-butyl ((4-(((S)-5,7-difluorochroman-4-yl)oxy)-6-(dimethylcarbamoyl)-2-methyl-1H-benzo (d)imidazol-1-yl)methyl) hydrogen phosphate], the “improved water solubility (pH 6.8) compared to the comparative compound” value was 128 times. Also, the “gastric acid releasing suppression ability (% INH, Mean ± SD)” value in the series on gastric acid secretion [1] (setting [3]) worked out at 23.9 ± 3.3 % INH. The same compound registered a solubility at 31 min in the series “physchem” of 2560 µg/mL.

For the compound `Cc1nc2c(O[C@H]3CCOc4cc(F)cc(F)c43)cc(C(=O)N(C)C)cc2n1COP(=O)(O)O` [Embodiment 4, (S)-(4-((5,7-difluorochroman-4-yl)oxy)-6-(dimethylcarbamoyl)-2-methyl-1H-benzo[d]imidazol-1-yl)methyl dihydrogen phosphate], the “improved water solubility (pH 6.8) compared to the comparative compound” value was found to be 128 times. The “gastric acid releasing suppression ability in the gastric acid secretion animal model (in words)” value in the series with gastric acid secretion [1] (rats, oral 3 mg/5 ml/kg) is reported as “powerful gastric acid releasing suppression ability”. Further, in the series with gastric acid secretion [1] (setting [3]), the “gastric acid releasing suppression ability (% INH, Mean ± SD)” value is on record as 100.0 ± 0.0 % INH. The compound further came in with a solubility at 31 min in the series “physchem” of 2560 µg/mL.

With “sodium(S)-(4-((5,7-difluorochroman-4-yl)oxy)-6-(dimethylcarbamoyl)-2-methyl-1H-benzo (d) imidazol-1-yl)methyl phosphate) [Embodiment 6]”, the “gastric acid releasing suppression ability (% INH, Mean ± SD)” value in the series on gastric acid secretion [1] (rat, in vivo) is 92.8 ± 4.8 % INH; with gastric acid secretion [2], 43.7 ± 8.7 % INH. Moreover, the “gastric acid releasing suppression ability in the gastric acid secretion animal model (in words)” value with gastric acid secretion [1] (rat, in vivo, po) is on record as “powerful gastric acid releasing suppression ability”. In the series with gastric acid secretion [2] (drug administered to the duodenum with a neutral pH, 1 mg/5 ml/kg), the “ability to inhibit gastric acid secretion compared to the comparative compound (in words)” value is “improved ability to inhibit gastric acid secretion compared to the comparative compound”.

With “sodium(S)-tert-butyl ((4-((5,7-difluorochroman-4-yl)oxy)-6-(dimethylcarbamoyl)-2-methyl-1H-benzo (d) imidazol-1-yl)methyl) phosphate) [Embodiment 5]”, the “gastric acid releasing suppression ability (% INH, Mean ± SD)” value with gastric acid secretion [1] (rat, in vivo) worked out at 12.7 ± 10.9 % INH.
